Laboratory results reported in the NIST ThermoML archive (doi:10.1016/j.jct.2016.08.033).
Numbers after ± are expanded uncertainties.

Columns and labels:
[1] = 303.15 K; 101.33 kPa; Liquid; Vibrating tube method
[2] = refractive index (Na D-line) (dimensionless); conditions: 303.15 K; 101.33 kPa; Liquid; Standard Abbe refractometry

Q: Which mass density [1] does the source give for `CCCCCC[n+]1ccn(C)c1.O=S(=O)([N-]S(=O)(=O)C(F)(F)F)C(F)(F)F` here?
A: 1367.17 ± 1.1 kg/m3

Q: What about the refractive index [2] of the same compound?
A: 1.42851 ± 0.0011

Q: Which mass density [1] does the source give for `CCCC(=O)O` [butanoic acid] here?
A: 948.44 ± 1 kg/m3

Q: And the refractive index [2]?
A: 1.39394 ± 0.0011

Q: For `C=COC(=O)CCC` [vinyl butanoate], which mass density [1] is on record?
A: 888.65 ± 1 kg/m3

Q: What about the refractive index [2] of the same compound?
A: 1.40494 ± 0.0011

Q: Which mass density [1] does the source give for `CCn1cc[n+](C)c1.O=S(=O)([N-]S(=O)(=O)C(F)(F)F)C(F)(F)F` here?
A: 1513.74 ± 1.2 kg/m3

Q: And the refractive index [2]?
A: 1.42162 ± 0.0011

Q: For `CCCC(C)O` (configuration not stated) [pentan-2-ol], which mass density [1] is on record?
A: 800.09 ± 2.1 kg/m3

Q: And the refractive index [2]?
A: 1.40216 ± 0.0021

Q: With `CCCC(=O)OC(C)CCC` (configuration not stated) [1-methylbutyl butanoate] as the compound, how does the mass density [1] read?
A: 849.19 ± 1 kg/m3

Q: What about the refractive index [2] of the same compound?
A: 1.40283 ± 0.0011
